Measurements taken from patent US20240376126A1, “PRMT5 INHIBITOR AND THE USE THEREOF” (CYTOSINLAB THERAPEUTICS CO., LTD., priority 2022, published 2024).

Key:
HCT116 MTAP WT cells = test: Proliferation inhibition of HCT116 cells in vitro (CellTiter Glo, 6 days); format: cell-based; settings: Homo sapiens, HCT-116, 144 h, read-out: Cell proliferation inhibition rate HCT116 MTAP WT IC50 (nm)
Text: (§1) Biological Test Example 2 Proliferation Inhibition of HCT116 and HCT116 MTAP-KO Cells In Vitro
(§2) HCT116 cell line was purchased from the Chinese Academy of Sciences Cell Bank, and the MTAP gene was knocked out by CRISPR/Cas9 technology to obtain HCT116-MTAP-KO cell line.
(§3) McCoy's 5A medium (Gibco, catalog No. 16600082), fetal bovine serum (Gibco, catalog No. 10099141C), penicillin-streptomycin double antibody (Gibco, catalog No. 15140122), pancreatic enzyme (Gibco, catalog No. 25200056), CellTiter Glo assay kit (Promega, catalog No. G7572), 384-well transparent flat-bottomed black walled cell culture plate (Corning, catalog No. 3764), ultra micro sampler (Tecan, catalog No. D300e), Multimode reader (Biotek, catalog No. SynergyHTX)
(§4) • 1. Cell culture: HCT116 and HCT116-MTAP-KO cells were cultured in McCoy'5A medium+10% fetal bovine serum+1% penicillin-streptomycin double antibody; to ensure that they were always in the logarithmic growth phase and the cell viability greater than 95%. • 2. Compound concentration gradient preparation: The compound to be tested was added to a 384-well plate using an ultra micro sampler, starting from 30 μM (HCT116 cells) or 3 μM (HCT116-MTAP-KO cells), and diluted with DMSO at 3 times for a total of 9 concentrations and set up three duplicate wells. • 3. Treatment of cells with compounds: Trypsin-digested HCT116 or HCT116-MTAP-KO cell suspension was added to the 384-well plates spotted with the compounds to be tested at 40 μL per well, i.e., 100 cells per well, and the final concentration of DMSO was 0.4%. The cell culture plate was incubated at 37° C. in a 5% CO2 incubator for 6 days. • 4. Detection: 20 μL of CellTiter Glo reagent was added to each well of the cell culture plate and incubated at room temperature for 30 minutes. A multimode reader was used to detect the luminescence signal at […]. • 5. Data analysis:
(§5) The data was fitted with GraphPad Prism 8.0 software using a four parameter inhibitor-reaction model to obtain the […] (half inhibitory concentration) of the test compounds.
(§6) The first column represents cell proliferation inhibition rate HCT116 MTAP WT IC50 (nm), and the second column represents cell proliferation inhibition rate HCT116-MTAP null IC50 (nm): […]

[1] = system: HCT116-MTAP-KO (MTAP null) cells; test: Proliferation inhibition of HCT116 MTAP-KO cells in vitro (CellTiter Glo, 6 days); format: cell-based; settings: HCT116-MTAP null, 144 h, read-out: Cell proliferation inhibition rate HCT116-MTAP null IC50 (nm)
Text: as §1, §2, §3, §4, §5, §6

Compound | IC50 (HCT116 MTAP WT cells) [nM] | IC50 [1] [nM]
Cc1cc2cc(C(=O)N(Cc3cc4ccccn4n3)C(C)c3cccc(F)n3)ccc2nc1N (stereo not drawn) [Example 122] | 1000 to 10000 | < 100
CCN(Cc1cn2cc(OC)ccc2n1)C(=O)c1cc2c(cc1F)nc(N)c1c(C)ncn12 [Example 263] | 1000 to 10000 | 100 to 1000
Cc1ncn2c1c(N)nc1cc(F)c(C(=O)N(C)C3COc4cc(-c5cnn(C)c5)ccc43)cc12 (stereo not drawn) [Example 226] | 1000 to 10000 | 100 to 1000
COC1CC(N(Cc2cn3ccccc3n2)C(=O)c2cc3c(cc2F)nc(N)c2c(C)ncn23)C1 (stereo not drawn) [Example 273] | 1000 to 10000 | < 100
Cc1ncc2c(N)nc3cc(Cl)c(C(=O)N(Cc4cn5cc(C(F)(F)F)ccc5n4)c4cnn(C)c4)cc3n12 [Example 210] | 1000 to 10000 | 100 to 1000
Cc1ncn2c1c(N)nc1cc(F)c(C(=O)N(Cc3cn4ccccc4n3)c3cnn(C)n3)cc12 [Example 262] | 1000 to 10000 | < 100
Cn1cc(N(Cc2nc3ccc(C(F)(F)F)cn3c2F)C(=O)c2cc3c4c(c(N)nc3cc2F)COC4)cn1 [Example 84] | 1000 to 10000 | < 100
CCN(Cc1cn2cc(C(F)(F)F)ccc2n1)C(=O)c1cc2c(cc1F)nc(N)c1cnc(C)n12 [Example 178] | 1000 to 10000 | 100 to 1000
Cc1ncn2c1c(N)nc1ccc(C(=O)N(Cc3cn4ccccc4n3)CC(C)C)cc12 [Example 297] | 1000 to 10000 | < 100
CC1OCc2c1c(N)nc1ccc(C(=O)N(Cc3cn4cc(C(F)F)ccc4n3)c3cnn(C)c3)cc21 (stereo not drawn) [Example 78] | 1000 to 10000 | < 100
Cc1ncc2c(N)nc3cc(F)c(C(=O)N(Cc4cn5cccc(C(F)(F)F)c5n4)c4cnn(C)c4)cc3n12 [Example 195] | 1000 to 10000 | 100 to 1000

Further lines, results first:

IC50 (HCT116 MTAP WT cells) [nM] | IC50 [1] [nM] | Compound
1000 to 10000 | 100 to 1000 | Cn1cc(N(Cc2cn3cc(C(F)(F)F)ccc3n2)C(=O)c2ccc3nc(N)c4c(c3c2)OCC4)cn1 [Example 113]
1000 to 10000 | < 100 | COCCOc1ccc2nc(CN(CC(C)C)C(=O)c3cc4c(cc3F)nc(N)c3cnn(C)c34)cn2c1 [Example 35]
1000 to 10000 | 100 to 1000 | Cc1ncc2c(N)nc3cc(F)c(C(=O)N(Cc4cn5ccccc5n4)CC(F)F)cc3n12 [Example 252]
100 to 1000 | < 100 | COC1CCC1N(Cc1cn2cc(C(F)(F)F)ccc2n1)C(=O)c1cc2c(cc1F)nc(N)c1c(C)ncn12 (stereo not drawn) [Example 284]
1000 to 10000 | 100 to 1000 | CCN(Cc1nc2ccccc2[nH]1)C(=O)c1ccc2nc(N)c3c(c2c1)COC3C (stereo not drawn) [Example 135]
1000 to 10000 | 100 to 1000 | Cc1ncn2c1c(N)nc1ccc(C(=O)N(Cc3cn4cc(C(F)(F)F)ccc4n3)c3cnn(C)c3)cc12 [Example 293]
1000 to 10000 | 100 to 1000 | CCN(Cc1cn2ccccc2n1)C(=O)c1ccc2nc(N)c3ncc(C)n3c2c1 [Example 279]
1000 to 10000 | 100 to 1000 | Cc1cc2cc(C(=O)N(Cc3cn4cc(C(F)(F)F)ccc4n3)c3cn(C)nc3C)ccc2nc1N [Example 103]
1000 to 10000 | < 100 | Cc1nn(C)cc1N(Cc1cn2cc(C(F)(F)F)ccc2n1)C(=O)c1ccc2nc(N)c3c(cnn3C)c2c1 [Example 105]
1000 to 10000 | 100 to 1000 | Cc1nn(C)cc1N(Cc1nc2ccccc2[nH]1)C(=O)c1cc2c(cc1F)nc(N)c1c(C)ncn12 [Example 237]
1000 to 10000 | 100 to 1000 | CC(C)CN(Cc1nc2ccc(C(F)(F)F)cc2[nH]1)C(=O)c1ccc2nc(N)c3c(c2c1)COC3 [Example 131]
1000 to 10000 | < 100 | COC1CCC1N(Cc1cn2cc(C(F)(F)F)ccc2n1)C(=O)c1ccc2nc(N)c3c(C)ncn3c2c1 (stereo not drawn) [Example 286]
100 to 1000 | < 100 | Cc1ncc2c(N)nc3cc(F)c(C(=O)N(Cc4cn5ccccc5n4)C45CC(C4)C5)cc3n12 [Example 169]
